Assay results published in the supplement of paper PMC10307832.

Columns and labels:
Assay in all cases: relative viability (nuclei count vs DMSO), 5 days (fraction); higher = more cells survive
Ricolinostat = compound: O=C(CCCCCCNC(=O)c1cnc(N(c2ccccc2)c2ccccc2)nc1)NO [Ricolinostat]
Outline: (§1)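 In 1536-well plates, lung cancer cell lines rested overnight at 37 °C before five library-drug doses (not always all listed), √10 apart, were pinned onto vehicle-anchored plates. Nuclei were counted with MetaXpress from 4× Hoechst images taken after 5 days without medium change. Viability compares treated-well with vehicle-well nuclei as a median over plates, and plates needed control CV below 25% plus at least one doubling to pass.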

TGX 221 = compound: CC1=CN2C(=O)C=C(N=C2C(=C1)C(C)NC3=CC=CC=C3)N4CCOCC4 [TGX 221]
Outline: as §1

[1] = compound: C1=CC=C(C(=C1)C2=CC=C(C=C2)C3=CSC4=C3C(=C(C(=O)N4)C#N)O)O
Outline: as §1

| Cell Line | relative viability (Ricolinostat; 0.08 µM) | relative viability (Ricolinostat; 0.253 µM) | relative viability (Ricolinostat; 0.8 µM) | relative viability (Ricolinostat; 2.53 µM) | relative viability (TGX 221; 0.08 µM) | relative viability (TGX 221; 0.253 µM) | relative viability (TGX 221; 0.8 µM) | relative viability (TGX 221; 2.53 µM) | relative viability (TGX 221; 8 µM) | relative viability ([1]; 0.08 µM) | relative viability ([1]; 0.253 µM) | relative viability ([1]; 0.8 µM) | relative viability ([1]; 2.53 µM) | relative viability ([1]; 8 µM) |
| --- | --- | --- | --- | --- | --- | --- | --- | --- | --- | --- | --- | --- | --- | --- |
| 201T | 0.876 | 0.978 | 1.02 | 0.93 | 0.911 | 0.959 | 0.979 | 0.865 | 0.876 | 0.945 | 0.964 | 0.932 | 0.94 | 1.02 |
| NCI-H838 | 0.822 | 1.05 | 0.981 | 0.95 | 0.946 | 0.833 | 0.886 | 0.83 | 0.761 | 0.893 | 1.06 | 0.98 | 0.882 | 0.824 |
| NCI-H1915 | 0.899 | 0.968 | 0.976 | 0.862 | 0.937 | 0.985 | 0.993 | 0.871 | 0.994 | 0.967 | 1.06 | 0.892 | 1.05 | 0.869 |
| LCLC-103H | 0.778 | 0.957 | 1.04 | 1.08 | 0.903 | 0.983 | 0.878 | 0.928 | 0.959 | 1.02 | 0.984 | 1.05 | 0.984 | 1 |
| SK-LU-1 | 0.939 | 0.981 | 0.995 | 0.72 | 0.954 | 0.964 | 0.963 | 0.932 | 0.876 | 1.11 | 0.96 | 0.994 | 1.16 | 0.81 |
| NCI-H2347 | 0.911 | 0.964 | 0.994 | 0.92 | 0.898 | 0.987 | 0.986 | 0.88 | 0.851 | 0.996 | 1.15 | 0.989 | 1.07 | 0.916 |
| ABC-1 | 1 | 0.996 | 0.846 | 0.88 | 0.827 | 0.924 | 0.979 | 1.02 | 0.922 | 0.854 | 0.866 | 1.01 | 0.874 | 0.881 |
| NCI-H1563 | 0.894 | 1.02 | 0.837 | 0.864 | 0.947 | 0.915 | 0.831 | 0.866 | 0.748 | 0.959 | 0.971 | 0.976 | 0.955 | 0.989 |
| NCI-H1355 | 0.855 | 0.97 | 0.948 | 0.893 | 0.979 | 0.948 | 0.972 | 0.864 | 0.902 | 0.839 | 1.13 | 1.02 | 1.02 | 0.955 |
| NCI-H2228 | 0.99 | 0.981 | 0.944 | 0.921 | 0.831 | 0.97 | 1.04 | 0.846 | 0.996 | 1.08 | 1.1 | 1.19 | 1.07 | 0.782 |
| LXF-289 | 0.994 | 0.972 | 1 | 0.968 | 1.03 | 0.98 | 1.03 | 0.984 | 1.04 | 0.936 | 1.02 | 1 | 1.06 | 0.969 |
| NCI-H2085 |  | 0.986 | 0.972 | 0.88 | 1.01 | 0.933 | 0.863 | 0.644 | 0.585 | 0.905 | 1.13 | 0.982 | 0.964 | 0.917 |
